One assay deals with T1, METTL16 (1-291) (Homo sapiens, UniProt Q86W50).
T1 construct: METTL16 MTD (1–291) was subcloned to pOPINB plasmid; His tag followed by HRV 3C cleavage site (N, cleaved yes); made in house; host or cells: E. coli Rosetta (DE3)
T1 sequence (Q86W50 1-291): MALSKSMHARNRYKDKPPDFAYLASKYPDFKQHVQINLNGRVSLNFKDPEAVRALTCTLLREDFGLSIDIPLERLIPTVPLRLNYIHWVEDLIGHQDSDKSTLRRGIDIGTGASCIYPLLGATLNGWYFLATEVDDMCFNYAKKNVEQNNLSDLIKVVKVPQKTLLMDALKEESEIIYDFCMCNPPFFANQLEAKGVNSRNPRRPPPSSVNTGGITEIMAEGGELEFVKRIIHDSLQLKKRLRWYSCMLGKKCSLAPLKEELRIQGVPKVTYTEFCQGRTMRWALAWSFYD
The assay is described as follows: Covalent binding evaluation by protein LC–MS. The conditions noted are these: 30 μM METTL16 (1-291), 100 μM compound, 30 or 150 min. How it is done: To evaluate whether the aminothiazolones covalently bind to METTL16, we performed the LC–MS analysis after incubating the protein with aminothiazolones for 30 and 150 min, respectively. In the case of covalent binding, we would expect to observe the formation of covalent adducts, which would accrue over time. […] Besides the LC–MS analysis result, an irreversible inhibition counter screening indicated the reversible inhibitory activity of the aminothiazolones (Figure S8A).
Figure S7. Covalent evaluation of METTL16 inhibitors via LC-MS. (A) Deconvoluted mass spectrum of 30 µM METTL16 (1-291) incubated with 1% DMSO for 30 min (left) and 150 min (right). (B), (C), (D) Deconvoluted […]
(right). Expected Mass for METTL16 (1-291), 33455.7 Da. The observed small mass shift of ~50 Da appeared in both the DMSO control and compound-treated samples was probably formed by the solvent used in the LC-MS.
(1 picture or pasted object on this page, not shown here)
For computational docking analysis of aminothiazolones to the RNA binding site of METTL16 (PDB code: 6B91)2 Schrödinger® Maestro 12.3 was used. […]
Chemical states were generated with the ligand preparation module and METTL16 conformation with the protein preparation module. […] The glide dock module was used and the results were evaluated according to interactions between small molecules and METTL16, small molecule orientations, docking scores and solvent exposure patterns. […]
METTL16 MTD protein was diluted in SEC buffer (20mM pH 7.5, 200 mM NaCl, 0.5 mM TCEP,5% v/v glycerol) to a final concentration of 30 µM, and incubated with DMSO or 100 μM compound (final 1% DMSO) at room temperature. After incubation (30 min or 150 min), the samples were analyzed on an Agilent 1260 II Infinity system equipped with an electrospray ion source in positive mode, run through a Desalting cartridge (AdvanceBio Desalting-RP, 2.1 mm, 12.5mm, Agilent) with a gradient of 5-80% HPLC-grade acetonitrile (+ 0.1% TFA) in HPLC-grade water (+ 0.1% TFA) (flowrate: 0.4 mL/min, runtime: 6 min). […]

Assay [1] deals with T2, METTL16–MAT2A-hp1 mRNA interaction (METTL16 MTD 1–291, FAM-labeled MAT2A-hp1 RNA) (Homo sapiens, UniProt Q86W50).
T2 sequence (Q86W50 1-291): T1 sequence (Q86W50 1-291)
The assay is described as follows: Fluorescence polarization (FP) assay, disruption of METTL16 binding to FAM-MAT2A-hp1 RNA. (Fluorescence polarisation rises when a labelled molecule tumbles more slowly, as on binding a larger partner.)
Method: The binding of METTL16 to the FAM-labeled RNA probe formed a complex that led to a higher FP signal in comparison to that of the unbound RNA probe (Figure 2A). […] The Z-factor of 0.91 indicated the suitability of the assay condition (Figure S2D). […] In both FP assay and EMSA, a final concentration of 50 nM METTL16 and 5 nM FAM-MAT2A-hp was used. The METTL16 MTD (amino acids 1–291) was used in this study unless specifically indicated otherwise.
The FP assay was performed using 384-well black plates (Corning #4514) in a total reaction volume of 20 μL, with the final concentration of protein and RNA being 50 and 5 nM respectively. Compounds were diluted in FP buffer and incubated with protein for 30 min at room temperature, then FAM-MAT2A-hp1 RNA probe was added and the fluorescence polarization was measured using a TECAN Spark plate reader, under the excitation wavelength of 485 nm and the emission wavelength of 535 nm with bandwidth of 20 nm. 1% DMSO was used as the control. The inhibition was calculated with the equation: inhibition = 100%(Control – X)/(Control – Blank); Control: DMSO with protein and FAM-RNA; Blank: DMSO with FAM-RNA; X: compound with protein and FAM-RNA. The IC50 value was further determined using GraphPad Prism 9. […] The polarization was measured under an excitation wavelength of 630 nm and an emission wavelength of 680 nm with a bandwidth of 20 nm.

Assay [2] relates to total RNA m^6A level in A549 cells. The experiment in a line: Total RNA m6A level by dot blot, A549. The assay is classed as cell-based, human. The conditions noted are these: 50 μM, 24 h, 45 potassium salt used. How it is done:
(§1) MDA-MB-231 cells and A549 cells were seeded into 6-well plates at 70% confluency and cultured overnight. Afterward they were treated with compound 45 potassium salt for 24 h. After the compound treatment, the cell culture medium was discarded and cells were washed with DPBS three times. The total RNA was then purified using RNeasy Mini Kit (Qiagen 74106) following the manufacturer’s protocol.
Concentrations of the total RNA were measured by NanoDrop and each sample was calibrated to the same concentration using RNase-free water. RNA samples were heated at 95 °C for 3 min and immediately chilled on ice to disrupt the secondary structures. The total RNA (1 μg) was dropped onto a positively charged nylon membrane (Invitrogen, AM10102). The membrane with RNA side up was immediately transferred to the UVP Cross-linker (Analytik Jena) with […] bulb and cross-linked under the UV light for 5 min two times, then the membrane was washed in TBST (1xTBS with 0.1% Tween 20) for 10 min at room temperature and blocked with 5% skimmed milk in TBST for 1 h at room temperature. The membrane was incubated with the anti-m^6A antibody (Synaptic systems 202003, 1 μg/mL) overnight at 4 °C. […] The membrane was further washed with TBST and detected with the Amersham ECL Prime Western Blotting Detection Reagent. […]

Assay [3] deals with MAT2A mRNA splicing in A549 cells. The assay is described as follows: MAT2A splicing by RT-qPCR, A549. The assay is classed as cell-based, human. The settings on record: 50 μM, 24 h, 45 potassium salt used. How it is done:
as §1
The reverse transcription was performed by using High-Capacity cDNA Reverse Transcription Kits (Thermo Fisher 4368814) with 500 ng of total RNA. qPCR was performed using PowerUp SYBR Green Master Mix (Thermo Fisher, A25742) with a 10 μL volume. The cycling was performed using Bio-Rad CFX96 Real-Time PCR Detection System following the standard cycling mode (primer Tm ≥ 60 °C) on the manufacturer’s protocol. The p value was calculated using GraphPad Prism software’s one-way ANOVA analysis.
Figure S10. Cellular evaluation of selected METTL16 inhibitors. (A)Suppression on cell viability in A549 cells.
Data are shown as mean ± SEM, n=3. (B) Suppression on cell viability in HCT116 cells. Data are shown as mean ± SEM, n=3. (C) Spliced MAT2A in A549 cells increased after treated 24 h with indicated dose of 45. Data are shown as mean ± SEM, n=4. **P<0.01, ns P>0.05. (D) Total RNA m 6A level in A549 cells after treated 24 h with 45. 45 potassium salt was used for MAT2A splicing and total RNA m 6A level evaluation. […]

The values that follow come from publication PMC11040665, “Aminothiazolone Inhibitors Disrupt the Protein–RNA Interaction of METTL16 and Modulate the m^6A RNA Modification” (JACS Au, 2024).

As a reminder, the IC50 is the point on the concentration scale where inhibition reaches its midpoint. High values mean weaker potency, low ones greater potency. Turning to `O=C1N=C(NS(=O)(=O)c2ccc(C(=O)O)cc2)SC1=C1C(=O)Nc2ccc(Br)cc21` [Compound 47], at METTL16 (1-291), the “covalent adduct formation with METTL16 (LC–MS)” value is “no such covalent adduct with a mass shift was observed”. The IC50 in assay [1] was 2100 nM.

With `CN1C(=O)C(=C2SC(NS(=O)(=O)c3ccc(C(=O)O)cc3)=NC2=O)c2cc(Br)ccc21` [Compound 45], the “covalent adduct formation with METTL16 (LC–MS)” value at METTL16 (1-291) is recorded as “no such covalent adduct with a mass shift was observed”. The “total m^6A RNA level, in words” value in assay [2] is listed as “increased the total m^6A mRNA levels”. The “MAT2A splicing, in words” value in assay [3] is given as “promoted MAT2A splicing”. The molecule further had an IC50 in assay [1] of 1700 nM.
